Data taken from patent publication US8680268B2, “Sulfonic acid derivative compound and novel naphthalic acid derivative compound” (Adeka Corporation, priority 2010, dated 2014).

Columns and labels:
[1] = Evaluation of solubility in various organic solvents at 25° C.; type: physicochemical; details: concentration giving a stable solution
Source text: The case in which dissolution occurred at more than 20 mass % is indicated by 20<while the case of less than 0.5 mass % is indicated by 0.5>.

[2] = Measurement of UV absorption spectra of methanol solutions; type: physicochemical; details: 1×10^−5 mol/liter; for Maximum absorption (nm), first absorption peak / Maximum absorption (nm), second absorption peak: 200 nm to 500 nm; for Maximum absorption (nm), first absorption peak / Absorbance at first absorption peak: (short wavelength); for Maximum absorption (nm), second absorption peak / Absorbance at second absorption peak: long wavelength
Experimental: Solutions of the compounds listed in Table 2 among the compounds yielded in the above described examples and the comparative compounds 1-3 represented by the formulae described below in methanol with 1×10^−5 mol/liter were prepared to measure the UV absorption spectra of the solutions at 200 nm to 500 nm.

| Solubility in cyclohexanone [1] [mass %] | Solubility in propylene glycol monomethyl ether acetate [1] [mass %] | Solubility in γ-butyrolactone [1] | Maximum absorption (nm), first absorption peak [2] [nm] | Maximum absorption (nm), second absorption peak [2] [nm] | Absorbance at first absorption peak [2] | Absorbance at second absorption peak [2] | SMILES |
| --- | --- | --- | --- | --- | --- | --- | --- |
| 1.0 | < 0.5 | 1.9 mass % | 229 | 335 | 0.513 | 0.117 | Cc1ccc(S(=O)(=O)ON2C(=O)c3cccc4cccc(c34)C2=O)cc1 [compound 3] |
| 6.1 | 1.1 | 12.6 mass % | 231 | 335 | 0.413 | 0.133 | CC1(C)C2CCC1(CS(=O)(=O)ON1C(=O)c3cccc4cccc(c34)C1=O)C(=O)C2 (stereo not shown) [compound 1] |
| 7.1 | 1.9 | 4.8 mass % | 226 | 336 | 0.389 | 0.103 | O=C1c2cccc3cccc(c23)C(=O)N1OS(=O)(=O)C(F)(F)F [Comparative compound 2] |

| SMILES | Solubility in cyclohexanone [1] [mass %] | Solubility in propylene glycol monomethyl ether acetate [1] [mass %] | Solubility in γ-butyrolactone [1] | Maximum absorption (nm), first absorption peak [2] [nm] | Maximum absorption (nm), second absorption peak [2] [nm] | Absorbance at first absorption peak [2] | Absorbance at second absorption peak [2] |
| --- | --- | --- | --- | --- | --- | --- | --- |
| CCCCCCCCSc1ccc2c3c(cccc13)C(=O)N(OS(=O)(=O)CC13CCC(CC1=O)C3(C)C)C2=O (stereo not shown) [Compound S-29] | > 20 | 9.0 | 20< mass % | 210 | 400 | 0.299 | 0.158 |
| CCCCSc1ccc2c3c(cccc13)C(=O)N(OS(=O)(=O)CC13CCC(CC1=O)C3(C)C)C2=O (stereo not shown) [Compound S-28] | 14.0 | 2.8 | 17.8 mass % |  |  |  |  |
